US20240269139A1, “COMPOUNDS FOR TARGETED PROTEIN DEGRADATION OF KINASES” (DANA-FARBER CANCER INSTITUTE, INC., priority 2020, published 2024)
Where two headings read alike, the source gives them in different places.

Legend:
Assay type in all cases: cell-based
[1] = molecular target: T1, protein kinases (human kinome) (Homo sapiens, UniProt Q08881); details: for logFC: ITK (Q08881) protein abundance, degrader vs DMSO
T1 sequence (Q08881 1-620): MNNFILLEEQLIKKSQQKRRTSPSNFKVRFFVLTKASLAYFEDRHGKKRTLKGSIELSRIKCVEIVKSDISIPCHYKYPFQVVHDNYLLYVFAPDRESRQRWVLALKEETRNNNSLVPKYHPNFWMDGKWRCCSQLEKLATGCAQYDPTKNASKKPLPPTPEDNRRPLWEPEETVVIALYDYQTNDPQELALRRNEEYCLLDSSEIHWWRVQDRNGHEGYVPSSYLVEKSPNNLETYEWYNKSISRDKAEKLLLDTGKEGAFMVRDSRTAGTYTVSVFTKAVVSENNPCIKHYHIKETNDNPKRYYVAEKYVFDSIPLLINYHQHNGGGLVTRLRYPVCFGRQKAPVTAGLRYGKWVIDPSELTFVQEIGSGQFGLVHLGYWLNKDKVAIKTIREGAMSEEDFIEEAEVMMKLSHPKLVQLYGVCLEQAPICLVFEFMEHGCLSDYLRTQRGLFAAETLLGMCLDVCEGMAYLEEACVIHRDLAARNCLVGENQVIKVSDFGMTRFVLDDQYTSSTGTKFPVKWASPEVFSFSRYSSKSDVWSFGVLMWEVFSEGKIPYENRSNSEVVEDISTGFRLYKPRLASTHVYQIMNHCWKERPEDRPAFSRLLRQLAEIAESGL

[2] = molecular target: protein kinases (human kinome) (Homo sapiens, UniProt Q9BYT3); details: STK33 (Q9BYT3-1)
Sequence of protein kinases (human kinome) (Homo sapiens, UniProt Q9BYT3) (Q9BYT3 whole entry): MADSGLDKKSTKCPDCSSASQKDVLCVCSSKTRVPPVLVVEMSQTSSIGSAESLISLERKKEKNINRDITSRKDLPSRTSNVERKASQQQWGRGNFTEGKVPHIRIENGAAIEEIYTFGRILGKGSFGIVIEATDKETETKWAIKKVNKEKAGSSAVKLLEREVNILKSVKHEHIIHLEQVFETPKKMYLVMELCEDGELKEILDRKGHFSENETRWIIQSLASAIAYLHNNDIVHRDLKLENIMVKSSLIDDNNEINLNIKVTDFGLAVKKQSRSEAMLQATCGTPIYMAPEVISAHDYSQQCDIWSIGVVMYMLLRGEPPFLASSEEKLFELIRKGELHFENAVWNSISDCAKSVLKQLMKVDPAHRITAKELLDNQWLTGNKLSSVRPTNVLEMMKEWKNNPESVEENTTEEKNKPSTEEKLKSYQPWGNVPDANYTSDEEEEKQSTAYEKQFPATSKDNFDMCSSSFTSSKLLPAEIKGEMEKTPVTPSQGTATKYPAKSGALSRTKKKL

[3] = molecular target: T2, protein kinases (human kinome) (Homo sapiens, UniProt Q9NRH2); details: for logFC: SNRK (Q9NRH2)
T2 sequence (Q9NRH2 1-765): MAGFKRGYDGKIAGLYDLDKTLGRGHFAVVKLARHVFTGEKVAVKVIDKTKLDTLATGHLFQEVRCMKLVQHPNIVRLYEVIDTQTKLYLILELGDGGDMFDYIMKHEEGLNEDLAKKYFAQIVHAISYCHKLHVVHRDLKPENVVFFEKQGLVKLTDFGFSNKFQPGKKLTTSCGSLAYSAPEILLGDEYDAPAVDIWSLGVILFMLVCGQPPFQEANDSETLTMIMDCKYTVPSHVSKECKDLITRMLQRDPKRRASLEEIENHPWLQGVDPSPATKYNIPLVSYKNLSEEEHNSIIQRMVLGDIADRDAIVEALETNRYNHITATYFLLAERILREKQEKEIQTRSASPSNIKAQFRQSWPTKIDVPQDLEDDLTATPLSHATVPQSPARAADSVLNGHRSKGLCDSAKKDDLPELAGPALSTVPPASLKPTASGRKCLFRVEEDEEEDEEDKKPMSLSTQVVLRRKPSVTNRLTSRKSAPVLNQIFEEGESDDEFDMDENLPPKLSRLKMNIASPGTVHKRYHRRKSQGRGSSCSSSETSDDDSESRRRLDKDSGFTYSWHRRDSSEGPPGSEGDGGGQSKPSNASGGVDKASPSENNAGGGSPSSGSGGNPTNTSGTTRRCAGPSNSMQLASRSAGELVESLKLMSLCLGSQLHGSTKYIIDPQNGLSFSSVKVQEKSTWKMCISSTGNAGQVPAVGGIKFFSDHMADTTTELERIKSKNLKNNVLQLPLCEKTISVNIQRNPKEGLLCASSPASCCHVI

[4] = experiment wp016, direction of change down
[5] = experiment wp131, direction of change down
[6] = experiment wp146, direction down

CC(C)S(=O)(=O)c1ccccc1Nc1nc(Nc2ccc(N3CCN(CCOCCOCCC(=O)NCCNc4cccc5c4CN(C4CCC(=O)NC4=O)C5=O)CC3)cc2)ncc1Cl (stereo not shown) [TL13.97]
logFC ([1]; direction of change down): −2.28
logFC ITK (Q08881) ([1]; experiment wp137): −2.28

CNC(=O)c1ccccc1Nc1cc(Nc2ccc(N3CCN(CCOCCOCCNC(=O)CNc4cccc5c4C(=O)N(C4CCC(=O)NC4=O)C5=O)CC3)cc2OC)ncc1C(F)(F)F (stereo not shown) [MFH.5.103.1]
logFC ([2]; experiment wp076): −2.784
logFC ([2]; experiment wp076, direction down): −2.784

CC(C)S(=O)(=O)c1ccccc1Nc1nc(Nc2ccc(N3CCN(CCOCCNC(=O)CNc4ccc5c(c4)C(=O)N(C4CCC(=O)NC4=O)C5=O)CC3)cc2)ncc1Cl (stereo not shown) [SK.3.93]
logFC ITK (Q08881) ([1]; experiment wp016): −2.136
logFC ITK (Q08881) [1, 4]: −2.136

Cc1ncsc1-c1ccc([C@H](C)NC(=O)[C@@H]2C[C@@H](O)CN2C(=O)[C@@H](NC(=O)CCOCCOCCN2CCN(c3ccc(Nc4ncc(Cl)c(Nc5ccccc5S(=O)(=O)C(C)C)n4)cc3)CC2)C(C)(C)C)cc1 [FMF.06.098.1]
logFC ITK (Q08881) ([1]; Experiment wp108): −0.3557
logFC ITK (Q08881) ([1]; experiment wp108, direction of change down): −0.3557
logFC ITK (Q08881) ([1]; experiment wp131): −0.3625
logFC ITK (Q08881) [1, 5]: −0.3625

O=C(COc1cccc2c1C(=O)N(C1CCC(=O)NC1=O)C2=O)NCCCCCCCN1CCc2cc(Nc3ncc(C4CC4)c(NCCCNC(=O)C4CCC4)n3)ccc2C1 (stereo not shown) [BSJ.04.178]
logFC ([3]; experiment wp134): −1.523
logFC of SNRK (Q9NRH2) ([3]; experiment wp134): −1.523

Cc1cc(Nc2ncc(Br)c(Nc3cccc(F)c3C(N)=O)n2)ccc1S(=O)(=O)NCCOCCOCCOCCOCCNc1cccc2c1C(=O)N(C1CCC(=O)NC1=O)C2=O (stereo not shown) [TMX.02.174]
logFC ([2]; experiment wp146): −1.763
logFC [2, 6]: −1.763

CC(C)S(=O)(=O)c1ccccc1Nc1nc(Nc2ccc(N3CCN(CCOCCOCCNC(=O)CNc4cccc5c4C(=O)N(C4CCC(=O)NC4=O)C5=O)CC3)cc2)ncc1Cl (stereo not shown) [TL12.186]
logFC ITK (Q08881) ([1]; experiment wp016): −2.342
logFC ITK (Q08881) [1, 4]: −2.342
logFC ITK (Q08881) ([1]; experiment wp131): −2.292
logFC ITK (Q08881) [1, 5]: −2.292
logFC ITK (Q08881) ([1]; experiment wp137): −1.973
logFC ITK (Q08881) ([1]; experiment wp137, direction of change down): −1.973

Cc1cnc(Nc2ccc(N3CCN(CCCCCCC(=O)N[C@H](C(=O)N4C[C@H](O)C[C@H]4C(=O)N[C@@H](C)c4ccc(-c5scnc5C)cc4)C(C)(C)C)CC3)cc2)nc1Nc1cccc(S(=O)(=O)NC(C)(C)C)c1 [JWG.123]
logFC of SNRK (Q9NRH2) ([3]; Experiment wp195): −1.197
logFC ([3]; experiment wp195): −1.197

NC(=O)c1c(F)cccc1Nc1nc(Nc2ccc(S(=O)(=O)NCCOCCOCCOCCOCCNc3cccc4c3C(=O)N(C3CCC(=O)NC3=O)C4=O)cc2)ncc1Br (stereo not shown) [TMX.02.138]
logFC ([2]; experiment wp146): −1.335
logFC [2, 6]: −1.335

Cc1ncsc1-c1ccc([C@H](C)NC(=O)[C@@H]2C[C@@H](O)CN2C(=O)[C@@H](NC(=O)CCCCCN2CCN(c3ccc(Nc4ncc5scc(-c6cccc(NS(C)(=O)=O)c6)c5n4)cc3)CC2)C(C)(C)C)cc1 [RSS0680, (2S,4R)-1-((S)-3,3-Dimethyl-2-(6-(4-(4-((7-(3-(methylsulfonamido)phenyl)thieno[3,2-d]pyrimidin-2-yl)amino)phenyl)piperazin-1-yl)hexanamido)butanoyl)-4-hydroxy-N—((S)-1-(4-(4-methylthiazol-5yl)phenyl)ethyl)pyrrolidine-2-carboxamide]
logFC of SNRK (Q9NRH2) ([3]; Experiment wp117): −0.6321
logFC ([3]; experiment wp080): −0.5567
logFC ([3]; experiment wp117): −0.6321
logFC of SNRK (Q9NRH2) ([3]; experiment wp080): −0.5567

CC(C)S(=O)(=O)c1ccccc1Nc1nc(Nc2ccc(N3CCN(CCOCCNC(=O)CNc4cccc5c4C(=O)N(C4CCC(=O)NC4=O)C5=O)CC3)cc2)ncc1Cl (stereo not shown) [SK.3.91]
logFC ITK (Q08881) ([1]; Experiment wp103): −1.663
logFC ITK (Q08881) ([1]; Experiment wp107): −1.963
logFC ITK (Q08881) ([1]; Experiment wp160, 2 hr): −0.799
logFC ([1]; 2 hr, down): −0.799
logFC ([1]; 4 hr, down): −1.783
logFC ITK (Q08881) ([1]; experiment wp016): −2.308
logFC ITK (Q08881) ([1]; experiment wp016, 1 uM): −2.033
logFC ITK (Q08881) ([1]; experiment wp016, 1 uM, direction of change down): −2.033
logFC ITK (Q08881) [1, 4]: −2.308
logFC ITK (Q08881) ([1]; experiment wp103, direction of change down): −1.663
logFC ITK (Q08881) ([1]; experiment wp107, direction of change down): −1.963
logFC ITK (Q08881) ([1]; experiment wp133, 1 hr): −0.3741
logFC ITK (Q08881) ([1]; experiment wp133, 1 hr, direction of change down): −0.3741
logFC ITK (Q08881) ([1]; experiment wp133, 2 hr): −0.8321
logFC ITK (Q08881) ([1]; experiment wp133, 2 hr, direction of change down): −0.8321
logFC ITK (Q08881) ([1]; experiment wp133, 4 hr): −1.654
logFC ITK (Q08881) ([1]; experiment wp133, 4 hr, direction of change down): −1.654
logFC ITK (Q08881) ([1]; experiment wp160, 4 hr): −1.783
logFC ([2]; experiment wp105): −2.057
logFC ([2]; experiment wp105, direction down): −2.057
logFC ([2]; experiment wp172): −2.227
logFC ([2]; experiment wp172, direction down): −2.227

Cc1ncsc1-c1ccc([C@H](C)NC(=O)[C@@H]2C[C@@H](O)CN2C(=O)[C@@H](NC(=O)CCCCCN2CCc3cc(Nc4ncc(C5CC5)c(NCCCNC(=O)C5CCC5)n4)ccc3C2)C(C)(C)C)cc1 [BSJ.05.026]
logFC of SNRK (Q9NRH2) ([3]; Experiment wp195): −1.856
logFC ([3]; experiment wp195): −1.856
